Data as given in ChEMBL document CHEMBL1201862, “PubChem BioAssay data set” (2004).
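Test compounds were applied to cells in 96-well plates for 48 hours at 5 doses. At the GI50, growth is halved.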 Calls of active or inactive are those of the source. No stated cut-off is given here; in the data, active = GI50 up to about 1.1 µM and inactive = higher.

What was measured:
Test in all cases: NCI tumour cell line growth inhibition, 48 h
[1] = tested on: OVCAR-4
[2] = tested on: CCRF-CEM
[3] = tested on: LOX IMVI
[4] = tested on: UACC-257
[5] = tested on: HT-29
[6] = tested on: SNB-75
[7] = tested on: UACC-62
[8] = tested on: LXFL 529
[9] = tested on: OVCAR-8
[10] = tested on: COLO 205
[11] = tested on: SK-MEL-5
[12] = tested on: SR
[13] = tested on: NCI-H226
[14] = tested on: SF-295
[15] = tested on: U-251
[16] = tested on: HCT-15
[17] = tested on: SNB-19
[18] = tested on: BT-549
[19] = tested on: DU-145
[20] = tested on: MDA-MB-435

SMILES	GI50 [1]	GI50 [2]	GI50 [3]	GI50 [4]	GI50 [5]	GI50 [6]	GI50 [7]	GI50 [8]	GI50 [9]	GI50 [10]	GI50 [11]	GI50 [12]	GI50 [13]	GI50 [14]	GI50 [15]	GI50 [16]	GI50 [17]	GI50 [18]	GI50 [19]	GI50 [20]
CNS(=O)(=O)NN(C)S(=O)(=O)c1ccc(Br)cc1	> 100 µM (inactive)	> 100 µM (inactive)	> 100 µM (inactive)	> 100 µM (inactive)	> 100 µM (inactive)	> 100 µM (inactive)	> 100 µM (inactive)	> 100 µM (inactive)	> 100 µM (inactive)	> 100 µM (inactive)	> 100 µM (inactive)	> 100 µM (inactive)	> 100 µM (inactive)	> 100 µM (inactive)	72.9 µM (inactive)	> 100 µM	> 100 µM (inactive)	–	–	–
O=C(CC1C(=O)Nc2ccccc2S1(=O)=O)Nc1cccc(Cl)c1 (centres undefined)	20.1 µM (inactive)	22.3 µM (inactive)	15.2 µM (inactive)	19.8 µM (inactive)	17.5 µM (inactive)	16.8 µM (inactive)	15.1 µM (inactive)	17.2 µM (inactive)	17.8 µM (inactive)	–	19.1 µM (inactive)	18.2 µM (inactive)	17.3 µM (inactive)	24.7 µM (inactive)	13.6 µM (inactive)	15.5 µM	19.4 µM (inactive)	–	–	–
CCC1NCC(=O)c2c1[nH]c1ccccc21 (centres undefined)	> 100 µM (inactive)	> 100 µM (inactive)	> 100 µM (inactive)	> 100 µM (inactive)	> 100 µM (inactive)	> 100 µM (inactive)	> 100 µM (inactive)	> 100 µM (inactive)	> 100 µM (inactive)	> 100 µM (inactive)	> 100 µM (inactive)	> 100 µM (inactive)	> 100 µM (inactive)	> 100 µM (inactive)	> 100 µM (inactive)	> 100 µM	> 100 µM (inactive)	–	–	–
O=C1OC2C(O)COC2(O)C1(O)C(C[N+](=O)[O-])c1ccc(Cl)cc1 (centres undefined)	8.45 µM (inactive)	3.45 µM (inactive)	2.69 µM (inactive)	6.68 µM (inactive)	1.99 µM (inactive)	9.35 µM (inactive)	10 µM (inactive)	1.95 µM (inactive)	10.1 µM (inactive)	3.84 µM (inactive)	8.17 µM (inactive)	4.26 µM (inactive)	11.6 µM (inactive)	12.1 µM (inactive)	9.29 µM (inactive)	6.84 µM	15.2 µM (inactive)	6.75 µM (inactive)	18.2 µM (inactive)	1.97 µM (inactive)
Cc1c(C(=O)CSc2nc3cc([N+](=O)[O-])ccc3[nH]2)c(=O)n(-c2ccccc2)n1C	> 100 µM (inactive)	> 100 µM (inactive)	> 100 µM (inactive)	> 100 µM (inactive)	> 100 µM (inactive)	> 100 µM (inactive)	–	> 100 µM (inactive)	> 100 µM (inactive)	> 100 µM (inactive)	> 100 µM (inactive)	> 100 µM (inactive)	> 100 µM (inactive)	> 100 µM (inactive)	> 100 µM (inactive)	> 100 µM	> 100 µM (inactive)	–	–	–
CCOP(=O)(OCC)/C(C#N)=C\c1ccc(OC(C)=O)cc1	> 100 µM (inactive)	> 100 µM (inactive)	> 100 µM (inactive)	> 100 µM (inactive)	> 100 µM (inactive)	> 78.5 µM (inactive)	> 100 µM (inactive)	> 100 µM (inactive)	> 100 µM (inactive)	> 100 µM (inactive)	> 100 µM (inactive)	> 100 µM (inactive)	> 100 µM (inactive)	> 100 µM (inactive)	> 100 µM (inactive)	> 100 µM	> 100 µM (inactive)	–	> 100 µM (inactive)	–
C[N+](C)(C)CC1CCCC1=O (centres undefined)	0.867 µM (active)	0.213 µM (active)	0.832 µM (active)	5.53 µM (inactive)	1.23 µM (inactive)	3.1 µM (inactive)	1.6 µM (inactive)	1.26 µM (inactive)	2.1 µM (inactive)	1.2 µM (inactive)	5.68 µM (inactive)	0.339 µM (active)	17.2 µM (inactive)	19.1 µM (inactive)	13.2 µM (inactive)	2.18 µM	20.2 µM (inactive)	1 µM (active)	0.0296 µM (active)	1.71 µM (inactive)
NC(CCSC(F)F)C(=O)O (centres undefined)	> 100 µM (inactive)	> 100 µM (inactive)	> 100 µM (inactive)	–	> 100 µM (inactive)	> 100 µM (inactive)	> 100 µM (inactive)	> 100 µM (inactive)	> 100 µM (inactive)	92.3 µM (inactive)	> 100 µM (inactive)	> 100 µM (inactive)	> 100 µM (inactive)	> 100 µM (inactive)	> 100 µM (inactive)	–	> 100 µM (inactive)	–	–	–
